# Laboratory results reported in patent US20250367154A1, “FORMULATIONS FOR PROMOTING HYDRATION AND METHODS OF USE THEREOF” (UNIVERSITY OF FLORIDA RESEARCH FOUNDATION, INCORPORATED, priority 2020, published 2025).
# Entries after “also recorded” stand apart in the source; their conditions may differ.
# Tested on: Small intestinal mucosal tissues (ileum and jejunum)
# Test: Ussing chamber sodium flux (net Na absorption, 22Na)
# Set-up: species or system Swiss mice
# Conditions: single free amino acid in solution, FIG. 4
# Experimental: Sodium (Na) Absorption Studies: measure net fluid and electrolyte absorption, wherein absorptive processes occur predominantly in the tip of the villi and secretory processes occur in the crypt. Na absorption studies were performed on certain of the amino acids present in 6AA-Hyd. […] Small intestinal mucosal tissues (ileum and jejunum) from 8-week old male Swiss mice were mounted in Ussing chambers containing isotonic Ringer solution, that was bubbled with 95% O2 and 5% CO2 and maintained at 37° C. throughout the experiment. After the tissues were allowed to stabilize, the conductance (G; expressed as mS/cm2) was recorded, and intestinal tissues were paired based on similar conductance. Sodium radioisotope (22Na) was added to either the basolateral or apical side of each tissue pair (Hot). Ringer samples were taken every 15 minutes from the contralateral sides (Cold). Sample 22Na activity was analyzed using a gamma counter, and unidirectional net sodium flux (Jnet; μeq·cm2·h−1) was calculated. [formula] [CPM=count per minute, CPM1=previous sample, CPM2=following sample; Blank=no 22Na added; 9/10=dilution factor for each sample (0.5 mL to 5 mL); 5=chamber volume (5 mL); 4=time factor (15 min to 60 min); 140=sodium concentration; Hot CPM=“Hot” sample activity; Cold CPM=“Cold” sample activity; 10=volume factor for Hot sample (0.1 mL to 1 mL); 0.3=intestinal surface area (cm2)]
row,Compound,net sodium (Na) absorption relative to control solution
1,N[C@@H](CC(=O)O)C(=O)O [aspartic acid],increase net Na absorption relative to a control; also recorded: significantly higher than that of control solution
2,N[C@@H](CO)C(=O)O [serine],increase net Na absorption relative to a control; also recorded: significantly higher than that of control solution
3,CC(C)[C@H](N)C(=O)O [valine],increase net Na absorption relative to a control; also recorded: significantly higher than that of control solution
